The values that follow come from patent publication US12024544B2, “CCN3 and CCN3 peptides and analogs thereof for therapeutic use” (Rosalind Franklin University of Medicine & Science, priority 2010, dated 2024).

Assay type in all cases: cell-based
The subject of one data set is collagen type I promoter. In words: collagen type I promoter (COL 1a2 promoter-luciferase) assay in TGF-beta stimulated mesangial cells. The method, then: In a second assay, the ability of the peptide to block the stimulation of collagen type I promoter by TGF-beta was tested. Collagen type I upregulation is a characteristic feature of fibrosis and is often used as an end point determination. TGF-beta is a well-established pro-fibrotic factor or cytokine that mesangial cells and other cells in the fibrotic response respond to by upregulating collagen and other matrix molecule production and accumulation. Several new anti-fibrotic therapies are under development that target the activity of TGF-beta. For the assays used in connection with the present invention, collagen promoter activity was measured as a rapid and early indicator of collagen-related fibrotic activity. The cells in culture were either unstimulated or stimulated by TGF-beta, both in the presence and absence of the selected peptides. If the peptides have inhibitory activity, the promoter activity under TGF-beta stimulation would be reduced to some value approaching the control, non-TGF-beta treated cells. The collagen promoter assay is based on the transfection of mesangial cells with a COL 1a2 promoter linked to luciferase. Therefore, when the promoter is stimulated it can be measured as luciferase units (Riser et al, CCN3 is a negative regulator of CCN2 and a novel endogenous inhibitor of the fibrotic pathway in an in vitro model of renal disease, American J Pathology, 174, 5, 2009). The level of collagen promoter activation (in arbitrary units), is based on a transfection efficiency control (CMV promoter activation).

Data set [1] has as its system human chronic myelogenous leukemia cells (K562). The settings on record: 10 nM. On the procedure:
Another potential use of the methods described in the invention is for the treatment of cancers. […] CCNp generated to mimic the effects of the function of CCN3 to prevent, reduce, stop or reverse progression of fibrosis/scarring may also serve to limit cancer growth. […] In untreated cells (Control) and those pre-incubated with quantities (approximately 10 nM) of a commercial recombinant CCN3 (rCCN3c), or full length CCN3 made in our laboratory, represented by several preparations rCCN3 8 (SEQ ID NO: 44), rCCN3 9 (SEQ ID NO: 44), rCCN3 10 (SEQ ID NO: 44), rCCN3 11 (SEQ ID NO: 44), or the peptides CCN p37 or CCN p38 were allowed to grow, then proliferation measured by the CellTiter-Glo® Luminescent Cell Viability Assay Control untreated cells, or cells (McCallum, L et al, CCN3: a key growth regulator in Chronic Myeloid Leukaemia, J Cell Commun Signal. 2009 June; 3(2): 115-124.). The latter is a homogeneous method of determining the number of viable cells in culture based on quantitation of the ATP present, an indicator of metabolically active cells. […] In comparison, CCNp37 produces 15-20% inhibition and CCNp38 approximately 40% inhibition of cell growth. Thus the activity was greater than the full-length CCN3.

For a further data set, the system named is MMP-1. In words: MMP-1 production by human skin fibroblasts. The note with it: for reduction in PDGF stimulated MMP-1 production: 100 nM, FIG. 27. From the text: (§1) To test this we used a cell culture model of skin healing/scarring, which employed the use of primary human skin fibroblasts derived from foreskins collected post circumcision. These have been used extensively in the past to grown in culture and treated with agents that are known to drive wound healing and or scarring. We were also interested in a rare form of skin fibrosis/scarring that can lead to systemic disease and death known as nephrogenic systemic fibrosis (NSF). NSF is a complication of NMR diagnostics in renal impaired patients, where gadolinium (GAD), a heavy metal, is used as a contrast agent, but in some cases appears to deposit in skin. Although the mechanism for development of skin fibrosis and subsequent systemic disease is not yet completely understood, we have developed a model that has allowed elucidation of the probable pathway to skin fibrosis (Bhagavathula, N., M. K. Dame, M. DaSilva, W. Jenkins, M. N. Aslam, P. Perone and J. Varani (2010)). “Fibroblast response to gadolinium: role for platelet-derived growth factor receptor.” Invest Radiol 45(12): 769-777). This disease is characterized as a hyperproliferative disease, and in our model it was shown that PDGF produced by resident skin fibroblasts are stimulated by GAD to increase their production of PDGF which acts to induce proliferation and the increased production of MMPs, regulators of ECM breakdown and thus turnover, including the major MMP, MMP-1. At the same time tissue inhibitors of MMPs (TIMPs) are also affected by exposure to GAD. […] It appears that local fibroblasts then respond to this increased TGF-beta by increasing their production of ECM, including predominantly collagen type 1.
(§2) We examined the role of CCN3 and CCNp in fibroproliferative/fibrotic responses in human dermal fibroblasts exposed to Omniscan, one of the gadolinium-based contrast agents associated with development of nephrogenic systemic fibrosis. These studies were carried out as we have previously described (Riser, B. L., N. Bhagavathula, P. Perone, K. Garchow, Y. Xu, G. J. Fisher, F. Najmabadi, D. Attili and J. Varani (2012)). “Gadolinium-induced fibrosis is counter-regulated by CCN3 in human dermal fibroblasts: a model for potential treatment of nephrogenic systemic fibrosis.” J Cell Commun Signal 6(2): 97-105.). In our studies, human dermal fibroblasts were exposed to Omniscan; or to PDGF and TGF-β1 as controls. Cellular proliferation was assessed along with MMP-1 (by ELISA and gelatin zymography), TIMP-1 (by ELISA) and COL1 (by ELISA) in the absence and presence of CCN3 and CCNp. CCN3 and CCNp38 was added to cells at 10 nM concentration and at the same time as PDGF. In parallel, CCN3 production was assessed in control and Omniscan-treated cells. In most case the results shown (each bar) are the mean of 3-5 separate experiments, using fibroblasts from different donors. CCN3 was produced in our laboratory from the human embryonic kidney cell line (HEK-293) transfected with the complete human CCN3 gene, and producing an approximate 55 kDa, full-length CCN3 product. A second source of CCN3 was obtained from Pepro Tech Corporation (Rocky Hill, NJ) and is produced in a prokaryote cell line.
(§3) Next we created and tested for efficacy, additional CCNp including those with the cysteines intact (native sequence) from CCNp37 and CCNp38 and those that were modified by either shortening the peptide by 1 or 2 amino acids or lengthening by one amino acid. These agents were added to human skin fibroblasts in increasing concentrations from 1 nM to 100 nM and compared to the equal concentration of CCN3 (SEQ. ID. NO: 67). They were added just prior to the addition of either TGF-beta or PDGF, depending on the experiment.

The next data set concerns human skin fibroblasts. Nature of the data set: human skin fibroblast proliferation.
From the text: as §1, §2, §3

Another data set deals with TIMP-1. Nature of the data set: TIMP-1 production by human skin fibroblasts.
From the text: as §1, §2
Next we created and tested for efficacy, additional CCNp including those with the cysteines intact (native sequence) from CCNp37 and CCNp38 and those that were modified by either shortening the peptide by 1 or 2 amino acids or lengthening by one amino acid. […]

In another data set the test system is pro-collagen type 1. In words: pro-collagen type 1 production by human skin fibroblasts. From the text:
To test this we used a cell culture model of skin healing/scarring, which employed the use of primary human skin fibroblasts derived from foreskins collected post circumcision. These have been used extensively in the past to grown in culture and treated with agents that are known to drive wound healing and or scarring. We were also interested in a rare form of skin fibrosis/scarring that can lead to systemic disease and death known as nephrogenic systemic fibrosis (NSF). NSF is a complication of NMR diagnostics in renal impaired patients, where gadolinium (GAD), a heavy metal, is used as a contrast agent, but in some cases appears to deposit in skin. Although the mechanism for development of skin fibrosis and subsequent systemic disease is not yet completely understood, we have developed a model that has allowed elucidation of the probable pathway to skin fibrosis (Bhagavathula, N., M. K. Dame, M. DaSilva, W. Jenkins, M. N. Aslam, P. Perone and J. Varani (2010)). “Fibroblast response to gadolinium: role for platelet-derived growth factor receptor.” Invest Radiol 45(12): 769-777). This disease is characterized as a hyperproliferative disease, and in our model it was shown that PDGF produced by resident skin fibroblasts are stimulated by GAD to increase their production of PDGF which acts to induce proliferation and the increased production of MMPs, regulators of ECM breakdown and thus turnover, including the major MMP, MMP-1. At the same time tissue inhibitors of MMPs (TIMPs) are also affected by exposure to GAD. […]
We examined the role of CCN3 and CCNp in fibroproliferative/fibrotic responses in human dermal fibroblasts exposed to Omniscan, one of the gadolinium-based contrast agents associated with development of nephrogenic systemic fibrosis. […] Cellular proliferation was assessed along with MMP-1 (by ELISA and gelatin zymography), TIMP-1 (by ELISA) and COL1 (by ELISA) in the absence and presence of CCN3 and CCNp. […] In parallel, CCN3 production was assessed in control and Omniscan-treated cells. […]

“Also recorded” adds a separate entry of the source. Where a SMILES comes first, the peptide text is derived from it.

Regarding `CC[C@H](C)[C@H](NC(=O)CNC(=O)[C@@H](NC(=O)[C@H](CCC(N)=O)NC(=O)[C@H](CC(N)=O)NC(=O)[C@H](CC(N)=O)NC(=O)[C@@H]1CCCN1C(=O)[C@H](CC(=O)O)NC(=O)[C@H](C)NC(=O)[C@H](CO)NC(=O)[C@H](CCCNC(=N)N)NC(=O)[C@H](CC(=O)O)NC(=O)[C@@H](N)CO)[C@@H](C)O)C(=O)N[C@@H](CO)C(=O)O` [CCNp38] (H-SDRSADPNNQTGIS-OH), the “inhibition of TGF-β-stimulated collagen promoter activity” value in the data set with collagen type I promoter (500 ng/mL) is on record as “able to inhibit collagen promoter activity”; in the data set on collagen type I promoter (peptide screen, FIG. 8), “reduce collagen promoter stimulation by TGF-β”. In addition, the “reduction in growth and/or viability (inhibition of cell growth)” value in data set [1] is on record as “approximately 40%”.

Take “CCNp38-4: Human native CCNp38, SEQ. ID. No. 50 (CDRSADPSNQTGIC; listed as Homo sapiens)”: in the data set with MMP-1, the “reduction in PDGF stimulated MMP-1 production” value is reported as “about 60%”. In addition, the “inhibition of PDGF-stimulated proliferation, comparison of modifications” value in the data set on human skin fibroblasts (1 nM to 100 nM, FIGS. 22-24) is “inhibited proliferation stimulated by PDGF, but was not as effective as the substituted form”.

In the case of “CCNp37-15: Human or mouse analog with native cysteines replaced with serines and without PH on C-terminal end, SEQ. ID. No. 55 (FSGVSSDGRSST)”, in the data set on MMP-1 (1 nM to 100 nM, FIGS. 25-27), the “block of PDGF stimulated MMP-1 production, comparison of modifications” value is on record as “less effective”.

For the compound “CCNp38-3: Human analog CCNp38 with native cysteines replaced with serines, SEQ. ID. No. 56 (SDRSADPSNQTGIS)”, in the data set on TIMP-1 (PDGF, 10 nM, FIG. 19), the “block of PDGF-induced increase in TIMP-1 production” value is given as “neither CCNp38-3 (Seq. ID. No. 56) nor CCN3 (SEQ. ID. No. 67) is able to block or reduce the increase in TIMP-1 production”. In addition, the “effect on TIMP-1 production with TGF-beta” value in the data set on TIMP-1 (TGF-beta (fails to stimulate), FIG. 20) is reported as “neither CCNp38-3 nor CCN3 have an effect; also recorded: neither CCNp38-3 or CCN3 have an effect”. Further, the “reduction of TGF-beta-stimulated pro-collagen type 1 production” value with pro-collagen type 1 (1-100 nM, FIGS. 31-33) is “as effective as CCN3”. Also, in the data set with pro-collagen type 1 (TGF-beta, 10 nM, FIG. 21), the “block of TGF-beta-induced increase in pro-collagen production” value is reported as “completely block the increase”. The “reduction in PDGF stimulated MMP-1 production” value with MMP-1 is reported as “about 60%”. Also, the “block of PDGF-induced increase in MMP-1 activity” value in the data set with MMP-1 (PDGF, 10 nM, FIG. 17) was “works better than CCN3 protein; also recorded: works as well or better than CCN3 protein”. Further, the “effect on MMP-1 with TGF-beta” value in the data set with MMP-1 (TGF-beta (no stimulating effect), FIG. 18) is recorded as “no effect”. Besides, the “block of PDGF-stimulated fibroblast proliferation” value with human skin fibroblasts (PDGF, 10 nM, FIG. 15) is “equally well; also recorded: this stimulation is blocked”. In addition, in the data set on human skin fibroblasts (TGF-beta (does not stimulate proliferation), FIG. 16), the “effect on baseline cell growth” value is “neither CCN3 (SEQ. ID. No. 67) nor CCNp38-3 (Seq. ID. No. 56) has an effect on baseline cell growth”.

On to `CC(C)[C@H](NC(=O)CNC(=O)[C@H](CO)NC(=O)[C@@H](N)Cc1ccccc1)C(=O)N[C@@H](CO)C(=O)N[C@@H](CO)C(=O)N[C@@H](CC(=O)O)C(=O)NCC(=O)N[C@@H](CCCNC(=N)N)C(=O)N[C@@H](CO)C(=O)N[C@@H](CO)C(=O)N[C@H](C(=O)N1CCC[C@H]1C(=O)N[C@@H](Cc1c[nH]cn1)C(=O)O)[C@@H](C)O` [CCNp37] (H-FSGVSSDGRSSTPH-OH), for which the “inhibition of TGF-β-stimulated collagen promoter activity” value is given as “able to produce some activity” with collagen type I promoter (added 24-hours prior to TGF-β); “also present (although to a lower level)” in the data set with collagen type I promoter (added 24-hours prior to TGF-β, listed as Peptide 37); “most effective” with collagen type I promoter (added just prior to TGF-β); “ability to totally block TGF-β-stimulated collagen promoter activity” with collagen type I promoter (added just prior to TGF-β, listed as Peptide 37); “reduce collagen promoter stimulation by TGF-β; also recorded: inhibition of TGF-beta stimulated collagen promoter activity; also recorded: more potent than CCNp38” in the data set on collagen type I promoter (peptide screen, FIG. 8). Also, the “reduction in growth and/or viability (inhibition of cell growth)” value in data set [1] was 15-20%.
